{"source": "paper PMC6395679", "about": "“Efficient cell penetration and delivery of peptide nucleic acids by an argininocalix[4]arene” (Scientific Reports, 2019)", "key": {"Fl-a221PNA": {"tested_on": "Fl-a221PNA", "experiment": "Fluorescence titration of Fl-a221PNA with calixarene 1", "assay_type": "binding", "conditions": "Fl-a221PNA 2 μM, HEPES 16 mM, NaCl 40 mM, pH 7.4, λex = 494 nm, 1 added stepwise up to 9.9 μM", "description": "For a fast evaluation of the interaction with PNA, fluorescently labelled Fl-a221PNA (Fl: Fluorescein) was diluted to a final concentration of 2 μM in buffer (HEPES 16 mM, NaCl 40 mM, pH 7.4) and placed in a fluorescence cuvette; to this, a concentrated solution of the argininocalix[4]arene 1 (100 μM in EtOH/H2O/DMSO = 2/2/1 v/v/v) was added stepwise (up to a final concentration of 9.9 μM of calixarene), and changes in the fluorescein emission intensity (with λex = 494 nm) were measured after each addition. Correction for lamp fluctuation was performed by measuring the fluorescence of a standard 2 μM fluorescein solution after each spectra; this correction and that for dilution were performed using the formula: Fi, corr = Fi,obs × (Fin /Fi) × (Vi /Vin), where Fi: intensity at the ith point and Fin: initial intensity of the fluorescein standard, Vi: total volume at the ith point and Vin: initial volume.\nIn order to rule out that the observed delivery was solely due to permeabilization of cells caused by the argininocalixarene, without interaction between the carrier and the PNA, Fl-a221PNA was titrated in vitro in buffer by adding 1 and measuring the changes in fluorescence emission (Fig. 4). […] A slight shift of the fluorescence maximum (from 519 to 523 nm) was also observed, consistent with a more polar microenvironment generated by the cationic calixarene."}, "U251 cells [1]": {"tested_on": "U251 cells", "experiment": "Effects on cell growth (cell number/ml, Z2 Coulter Counter)", "assay_type": "cell-based, human", "conditions": "after 72 hours of cell culture, effect of 1 significant only at 10 µM, lipofectamine within 0.5–12 μl/ml", "description": "(§1) Cell viability after the transfection with 1 was evaluated with Muse Count & Viability Kit (Millipore, Billerica, Massachusetts, USA), using Muse Cell Analyser (Millipore, Billerica, Massachusetts, USA). To perform analysis, 50 µL of suspension cells were added to 225 µL of Muse Count & Viability Reagent, the solution was incubated at room temperature for 5 minutes, protected from the light and then 1 × 10^3 events were analysed using Muse Cell Analyser (Millipore, Billerica, Massachusetts, USA). The effects on cell growth were studied by determining the cell number/ml using a Z2 Coulter Counter (Coulter Electronics, Hialeah, FL, USA). The effects of calixarene 1 on cell viability, cell growth and cell morphology were compared to those of Lipofectamine RNAiMAX (Invitrogen, Monza, Italy).\n(§2) Comparison was done with the effects of lipofectamine analyzed after 72 hours of cell culture. […] These findings are in agreement with the cell morphology profile shown in Fig. 2(D–F) and determined by microscopic inspection after 72 hours of cell culture in the presence of 2.5 µM calixarene 1 (Fig. 2E), 3μL/mL lipofectamine (Fig. 2F) or in the absence of both the delivery systems (Fig. 2D)."}, "miR-221-3p": {"tested_on": "miR-221-3p", "experiment": "RT-qPCR hybridization to miR-221-3p probe", "assay_type": "cell-based, human", "conditions": "U251 cells, 48 hours, calixarene 1 at 2.5 μM, PNAs at 2 μM", "description": "The human glioma U251 cells[50] were cultured in humidified atmosphere of 5% CO2/air in RPMI-1640 medium (Gibco, Life Technologies, Monza, Italy) supplemented with 10% (v/v) fetal bovine serum (FBS, Biowest, Nuaillé, France), 100 units/mL penicillin and 100 µg/mL streptomycin (Pen-Strep, Sigma-Aldrich, Saint Louis, Missouri, USA). All PNA transfection procedures were performed under the conditions described here below. Briefly, a mixture constituted by RPMI-1640 medium containing calixarene 1 at 2.5 µM final concentration, and 2 µM PNA was prepared and incubated for 20 minutes at room temperature, without serum. After the incubation, 10% (v/v) of FBS was added. […]\nFor miRNAs quantification, obtained RNA was reverse transcribed using TaqMan MicroRNA Reverse Transcription Kit (Applied Biosystems, Foster City, CA, USA) and miRNA specific stem-loop primer (hsa-miR-96-5p, ID: 000186; hsa-miR-155-5p, ID: 002623; hsa-miR-210-3p, ID: 000512; hsa-miR-221-3p, ID: 000524). Reverse transcription quantitative polymerase-chain reaction (RT-qPCR) was performed according to the manufacturer’s protocols and as indicated elsewhere. […] The relative expression was calculated using the comparative cycle threshold method (ΔΔCT) and U6 snRNA (hsa U6 snRNA, ID:001973) and hsa-let-7c (hsa-let-7c, ID:000379) as endogenous controls. […]"}, "U251 cells [2]": {"tested_on": "U251 cells", "experiment": "Cell morphology by microscopic inspection", "assay_type": "cell-based, human", "conditions": "72 hours of cell culture, 2.5 µM calixarene 1 or 3μL/mL lipofectamine", "description": "as §1, §2"}, "U251 cells [3]": {"tested_on": "U251 cells", "experiment": "Cell viability assay (Muse Count & Viability Kit)", "assay_type": "cell-based, human", "conditions": "in contact for all the treatment time", "description": "The human glioma U251 cells[50] were cultured in humidified atmosphere of 5% CO2/air in RPMI-1640 medium (Gibco, Life Technologies, Monza, Italy) supplemented with 10% (v/v) fetal bovine serum (FBS, Biowest, Nuaillé, France), 100 units/mL penicillin and 100 µg/mL streptomycin (Pen-Strep, Sigma-Aldrich, Saint Louis, Missouri, USA). All PNA transfection procedures were performed under the conditions described here below. Briefly, a mixture constituted by RPMI-1640 medium containing calixarene 1 at 2.5 µM final concentration, and 2 µM PNA was prepared and incubated for 20 minutes at room temperature, without serum. After the incubation, 10% (v/v) of FBS was added. Cell culture medium was removed and replaced with the transfection mixture, which was maintained in contact with cells until the end of the treatment.\nas §1\nOne of the major issues associated with the use of commercial available vehicles is the high toxicity of these compounds. For such reason 1 was first evaluated for its effect on cell viability when used to transfect molecules. […] Viability profile was determined at three different time points, 24, 48 and 72 hours after transfection, with three different concentrations of […], 1.25, 2.5, and 10 μM. […]"}}}
{"substance": "tetraargininocalix[4]arene [compound 1]", "values": [{"measurement": "concentration of carrier at saturation of fluorescence quenching", "setting": "Fl-a221PNA", "result": 2.5, "unit": "µM"}, {"measurement": "effect on cell proliferation (cell growth)", "setting": "U251 cells [1]", "result": "minor"}, {"measurement": "effect on miR-221-3p hybridization signal", "setting": "miR-221-3p", "result": "no effects"}, {"measurement": "effect on cell morphology", "setting": "U251 cells [2]", "result": "does not affect cell morphology"}, {"measurement": "percentage of total live cells", "setting": "U251 cells [3]; 1.25 µM of 1, 24 hours after the transfection", "result": "no differences"}, {"measurement": "percentage of total live cells", "setting": "U251 cells [3]; 2.5 µM of 1, 24 hours after the transfection", "result": "no differences"}, {"measurement": "live cells percentage", "setting": "U251 cells [3]; 10 µM of 1, 24 hours after the transfection", "result": "slight decrease"}]}
